Converted amounts (≈) assume the structure as drawn.

The first test relates to Amphibalanus amphitrite. The test can be described thus: Lethality against Balanus amphitrite cyprid larvae.
In turn, `CC(C)=CC(O)C(O)[C@@H](C)[C@H]1CC[C@H]2[C@@H]3CC[C@H]4CC(=O)C=C[C@]4(C)[C@H]3CC[C@]12C` (stereo partly drawn) yielded an LD100 of 100 µg/mL.

`C=C[C@H]1CC[C@H]2[C@@H]3CCc4cc(OC)ccc4[C@H]3CC[C@]12C` displayed an LD100 of 100 µg/mL.

Consider `COC(=O)/C=C/[C@@H](C)[C@H]1CC[C@H]2[C@@H]3CCC4=CC(=O)C=C[C@]4(C)[C@H]3CC[C@]12C`, for which the LD100 came to 100 µg/mL.

The compound `C=C[C@H]1CC[C@H]2[C@@H]3CCc4cc(O[C@@H]5O[C@@H](C)[C@@H](OC(C)=O)[C@@H](O)[C@@H]5O)ccc4[C@H]3CC[C@]12C` returned an LD100 of 100 µg/mL.

For another test, the system named is Amphibalanus amphitrite. In words: Antifouling activity against Balanus amphitrite assessed as inhibition of cyprid larval settlement. Format: functional, organism-based.
Turning to `CC(=O)OC(CCC(C)C)[C@@H](C)[C@]12CC[C@@]3(O1)[C@@H]1CCC4=CC(=O)C=C[C@]4(C)[C@H]1C[C@H](OC(C)=O)[C@]3(C)O2` (stereo partly drawn) [ISOGOSTERONE D], the EC50 (commonly the concentration that produces a half-maximal response) stood at 2.2 µg/mL (≈ 4.16 µM).

Take `CC(=O)O[C@H]1C[C@H]2[C@@H](CCC3=CC(=O)C=C[C@@]32C)[C@]23CC[C@]([C@H](C)CCCC(C)C)(O[C@@]12C)O3` [ISOGOSTERONE A]: the concentration for a half-maximal effect (EC50) was 2.2 µg/mL (≈ 4.67 µM).

For `CC(=O)OC(CCC(C)C)[C@@H](C)[C@]1(O)CC[C@@]2(O1)[C@@H]1CCC3=CC(=O)C=C[C@]3(C)[C@H]1C[C@H](OC(C)=O)[C@]2(C)O` (stereo partly drawn) [ISOGOSTERONE C], the EC50 came out at 2.2 µg/mL (≈ 4.02 µM).

Turning to `CC(=O)O[C@H]1C[C@H]2[C@@H](CCC3=CC(=O)C=C[C@@]32C)[C@]2(CC[C@@](O)([C@H](C)C(=O)CCC(C)C)O2)[C@@]1(C)O` [ISOGOSTERONE B], the concentration giving a half-maximal response (EC50) came to 2.2 µg/mL (≈ 4.38 µM).
